In PMC12002330 (Proceedings of the National Academy of Sciences of the …, 2025):
Where two headings read alike, the source gives them in different places.

Key:
[1] = molecular target: NS4B/NS3 interaction (WT NS4B) (Dengue virus type 2, UniProt P14340); format: cell-based
[2] = test system: DENV-2 NGC strain (WT); test: microbe, parasite or virus in culture; format: cell-based
[3] = molecular target: WT DENV-2 NS4B (Dengue virus type 2, UniProt P29990); test: ITC binding of inhibitor to NS4B
[4] = molecular target: NS4B peptide 121-171 (cytosolic loop) (Dengue virus type 2, UniProt P29990); format: binding; conditions: aa 121 to 171
[5] = test system: DENV-2 NGC-Nluc; test: Antiviral assay using NGC-Nluc in Huh7 cells; format: cell-based
[6] = molecular target: DENV-2 NS4B/NS3 interaction (Dengue virus type 2, UniProt P29990); format: binding
[7] = test system: four serotypes of DENV; conditions: cited from earlier work
[8] = molecular target: recombinant WT ZIKV NS4B (ZIKV) (UniProt Q32ZE1); test: ITC
[9] = molecular target: recombinant DENV-2 NS4B (mature, full-length) with an N-terminal hexahistidine tag (DENV-2) (UniProt P14340); test: BLI
[10] = molecular target: recombinant DENV-2 NS4B (mature, full-length) with an N-terminal hexahistidine tag (DENV-2) (UniProt P14340); test: ITC

recombinant DENV-2 full-length NS3, sequence (P14340 1476-2093 limits assumed): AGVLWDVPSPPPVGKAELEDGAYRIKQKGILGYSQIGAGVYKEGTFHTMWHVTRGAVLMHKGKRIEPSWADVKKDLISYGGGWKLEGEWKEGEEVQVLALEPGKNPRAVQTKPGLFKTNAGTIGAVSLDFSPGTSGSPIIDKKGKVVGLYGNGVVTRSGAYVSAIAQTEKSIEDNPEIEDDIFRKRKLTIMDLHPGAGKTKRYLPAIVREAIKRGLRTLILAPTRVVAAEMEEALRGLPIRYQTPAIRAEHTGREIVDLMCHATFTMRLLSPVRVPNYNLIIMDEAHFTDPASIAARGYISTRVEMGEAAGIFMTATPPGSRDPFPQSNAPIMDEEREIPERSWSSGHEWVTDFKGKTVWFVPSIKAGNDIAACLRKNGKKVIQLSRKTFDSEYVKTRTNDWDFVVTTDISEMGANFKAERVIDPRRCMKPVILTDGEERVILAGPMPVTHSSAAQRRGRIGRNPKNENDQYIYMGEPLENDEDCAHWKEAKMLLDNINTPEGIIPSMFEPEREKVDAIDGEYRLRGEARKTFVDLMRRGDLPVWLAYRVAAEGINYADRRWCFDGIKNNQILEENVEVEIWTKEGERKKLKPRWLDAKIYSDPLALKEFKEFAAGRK
recombinant DENV-2 NS4B (mature, full-length) with an N-terminal hexahistidine tag (DENV-2), sequence (P14340 2244-2491 limits assumed): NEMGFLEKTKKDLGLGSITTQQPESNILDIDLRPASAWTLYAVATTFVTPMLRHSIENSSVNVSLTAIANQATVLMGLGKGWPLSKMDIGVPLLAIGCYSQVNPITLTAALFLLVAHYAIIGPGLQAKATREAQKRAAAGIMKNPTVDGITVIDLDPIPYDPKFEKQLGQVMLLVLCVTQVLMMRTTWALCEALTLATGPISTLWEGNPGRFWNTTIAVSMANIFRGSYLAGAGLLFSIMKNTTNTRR
DENV-2 NS4B/NS3 interaction, sequence (P29990 2244-2491): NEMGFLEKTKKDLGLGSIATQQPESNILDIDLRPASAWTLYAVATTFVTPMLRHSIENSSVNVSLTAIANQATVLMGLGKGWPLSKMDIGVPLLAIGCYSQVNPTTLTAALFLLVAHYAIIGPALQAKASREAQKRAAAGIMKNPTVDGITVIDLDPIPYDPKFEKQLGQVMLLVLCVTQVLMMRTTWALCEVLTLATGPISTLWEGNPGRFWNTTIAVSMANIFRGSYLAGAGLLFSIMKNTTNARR
NS4B/NS3 interaction (WT NS4B), sequence (P14340 2244-2491): as the sequence (P14340 2244-2491 limits assumed) above
NS4B peptide 121-171 (cytosolic loop), sequence (P29990 2364-2414): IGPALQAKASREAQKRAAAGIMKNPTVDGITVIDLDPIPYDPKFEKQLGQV
WT DENV-2 NS4B, sequence (P29990 2244-2491): as the sequence (P29990 2244-2491) above

COc1cc(N[C@H](C(=O)c2c[nH]c3ccc(OC(F)(F)F)cc23)c2ccc(Cl)cc2OC)cc(S(C)(=O)=O)c1 [JNJ-1802]
decrease of NS3 co-IPed with NS4B ([1]; 10 nM JNJ-1802 added at 4 h posttransfection): 80%
decrease of NS3 co-IPed with NS4B ([1]; 10 nM JNJ-1802 added at 24 h posttransfection): 8%
higher potency in cellular assays than NITD-688 [2]: ~ 100 fold
EC50 ([2]; Dengue virus, DENV2, A549, 48 h, read-out: EC50 (averaged)): 19 pM
higher binding affinity to NS4B compared to NITD-688 [3]: 4.2 fold
binding to cytosolic loop of NS4B by ITC [4]: not the cytosolic loop
EC50 ([5]; Dengue virus, DENV2, Huh-7, 48 h): 0.031 nM
more inhibition of NS4B/NS3 interactions than NITD-688 ([6]; ITC assay): approximately 4 fold
inhibition of NS4B/NS3 binding ([6]; ITC, JNJ-1802 preincubated with NS4B): effectively inhibited
efficacy against four serotypes of DENV [7]: picomolar to low nanomolar efficacy

C#C[C@@]1(O)[C@H](O)[C@@H](CO)O[C@H]1n1ccc2c(N)ncnc21 [NITD-008]
EC50 ([5]; Huh7 cells): 380 nM

NS3 used in the ITC of ZIKV NS4B/NS3 interactions (enzyme)
Kd [8]: 3.4 µM

recombinant DENV-2 full-length NS3 (from UniProt P14340 1476-2093) (enzyme)
Kd [9]: 13 µM
fold increase of koff, 200 nM against 3.1 nM NITD-688 [9]: 2.6 fold
KD with NITD-688 (molar ratio to NS4B 1:2) [10]: 26.2 µM
KD with NITD-688 (molar ratio to NS4B 4:1) [10]: 594 µM
Kd [10]: 12.3 µM
